# Test results: publication PMC11164811 (Investigational New Drugs, 2024)
# Read-outs that look alike come from different tables or passages of the source.
# Legend:
# [1] = Plasma pharmacokinetics of selumetinib and N-desmethyl selumetinib on day 1 of cycle 1; assay type: in vivo, human
# Source text: Additional predose samples were collected on days 1 and 14 of cycle 2 and on days 1 and 14 of cycle 5.
# (§1) No formal hypothesis testing was planned.
# [2] = tested on: patients with advanced or metastatic solid tumors; assay: Dose-limiting toxicities during first 21 days, phase 1b MK-5618-001; assay type: in vivo, human; details: selumetinib twice daily 2 weeks on/1 week off in combination with pembrolizumab
# Source text: At least 3 patients were enrolled at each dose level; the modified toxicity probability interval (mTPI) design, with a target dose-limiting toxicity (DLT) rate of ~30%, was used to identify a potential maximum tolerated dose. Dose escalation and de-escalation decisions were based on the mTPI design and were dependent on the number of patients enrolled and number of DLTs observed at the particular dose level (Online Resource 1). Dose finding was considered complete after 14 patients were enrolled at any of the tested dose levels and the decision was made to stay at that dose level.
# as §1
# Any treatment-related toxicity that causes the patient to discontinue treatment during cycle 1 […]
# Cardiac disorders including
# • Absolute decrease in left ventricular ejection fraction >10% compared with baseline and below the institution’s lower limit of normal • Grade ≥3 left ventricular systolic dysfunction
# • Other cardiac disorders grade ≥3
# Vascular disorders including
# • Grade ≥3 hypertension requiring >1 drug or more intensive therapy […]
# assessment. […] The occurrence of any of the toxicities listed in this table was considered a dose-limiting toxicity if assessed by the investigator to be possibly, probably , or definitely related
"Observed t1/2, range across dose levels ([1]; human, in vivo) [h]",Compound,Maximum tolerable dose level [2],"half-life ([1]; human, in vivo, day 1 of cycle 1, selumetinib 50-125 mg, read-out: Observed t1/2, range across dose levels) [h]","half-life ([1]; human, in vivo, plasma, day 1 of cycle 1, Selumetinib 125 mg + Pembrolizumab 200 mg, n = 11, geometric mean (% geometric CV), read-out: t1/2 (converted)) [h]","AUC0‒last ([1]; plasma, day 1 of cycle 1, Selumetinib 125 mg + Pembrolizumab 200 mg, n = 14, geometric mean (% geometric CV))"
3.07 to 3.94,"O=C(NOCCO)c1cc2nc[nH]c2c(F)c1Nc1ccc(Br)cc1Cl [N-Desmethyl selumetinib, N-desmethyl selumetinib]",,,,
,"Cn1cnc2c(F)c(Nc3ccc(Br)cc3Cl)c(C(=O)NOCCO)cc21 [Selumetinib, selumetinib]",exceeds 125 mg,2.82 to 3.82,2.82,4430 (57.6) h · ng/mL
